Four compounds from ChEMBL document CHEMBL4190387 (Bioorg Med Chem Lett, 2018) can be followed below.

The nature of data set [1]: in vitro. The conditions noted are these: human, cryopreserved hepatocytes.
Data set [2] can be described thus: physchem. The note with it: buffer, pH 6.5.

Broadly, the hepatocyte CLint is the rate of metabolic loss divided by the concentration. The term chromatographic logD denotes lipophilicity estimated from chromatographic retention. Lower therefore signals lower lipophilicity.

In the case of `O=C(O)c1ccc(-c2ccc(OCCCCO)c(-c3ccc(N4CCCC4)c(C(F)(F)F)c3)c2)cc1`, the hepatocyte CLint at 1.5 h, 1 µM in data set [1] amounted to 22 µL/min/1e6 cells. The compound further showed a chromatographic logD in data set [2] of 2.8.
With `CCN(CC)c1ccc(-c2cc(-c3ccc(C(=O)O)cc3)ccc2OCCCCO)cc1C(C)(C)C`, the hepatocyte CLint at 1.5 h, 1 µM in data set [1] was determined as 33 µL/min/1e6 cells. For the same compound, the chromatographic logD in data set [2] came out at 4.3.
`CCN(CC)c1ccc(-c2cc(-c3ccc(C(=O)O)cc3)ccc2OCCCO)cc1` had a hepatocyte CLint at 1.5 h, 1 µM in data set [1] of 11 µL/min/1e6 cells. Moreover, in data set [2], the chromatographic logD was 1.9.
`CC(C)(C)c1cc(-c2cc(-c3ccc(C(=O)O)cc3)ccc2OCCO)ccc1N1CCCC1` [TRIFAROTENE]: the hepatocyte CLint at 1.5 h, 1 µM in data set [1] worked out at 72 µL/min/1e6 cells. In data set [2], the chromatographic logD turned out to be 3.5.
